Assay [1] concerns HCV genotype 1b (Con1) replicon in HUH-7 cells. Kind of assay: HCV replicon luciferase reporter assay, genotype 1b. It counts as cell-based. Conditions: Hepatitis C virus, Huh-7, 72 h, HCV genotype 1b replicon luciferase, 3 days incubation. In outline:
(§1)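 Replicon inhibition for both genotypes was measured as Renilla luciferase signal (EnduRen, 7.5 μM final, 2 h) after 3-day, 37° C exposure of replicon-bearing HUH-7 cells in 4% FCS DMEM, 0.5% DMSO. The 1b construct carries S1179I; the 1a H77 construct carries P1496L and S2204I. Twenty-point, 3-fold dilutions were fitted four-parametrically for EC50, and CC50 was taken from multiplexed Cell Titer-Blue.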
A general note: In antiviral work, replicon cells carry a viral genome segment that copies itself.

The subject of assay [2] is HCV genotype 1a (H77 strain) replicon in HUH-7 cells. Nature of the assay: HCV replicon luciferase reporter assay, genotype 1a. It is filed as cell-based. Conditions: Hepatitis C virus, Huh-7, 72 h, HCV genotype 1a replicon luciferase, 3 days incubation. A digest of the protocol: as §1

Where two headings read alike, the source gives them in different places.

The EC50 is the midpoint of the concentration-response curve. With `CC[C@@H]1C[C@H](C)CC/C=C\[C@@H]2C[C@@]2(C(=O)NS(=O)(=O)C2(C)CC2)NC(=O)[C@@H]2C[C@@H](Oc3nc(OC)cc4ccccc34)CN2C(=O)[C@H]1NC(=O)OC(C)(C)C` [Compound 6005, tert-butyl ((2R,6S,7R,9R,13aS,14aR,16aS,Z)-7-ethyl-2-((3-methoxyisoquinolin-1-yl)oxy)-9-methyl-14a-(((1-methylcyclopropyl)sulfonyl)carbamoyl)-5,16-dioxo-1,2,3,5,6,7,8,9,10,11,13a,14,14a,15,16,16a-hexadecahydrocyclopropa[e]pyrrolo[1,2-a][1,4]diazacyclopentadecin-6-yl)carbamate], the EC50 in assay [1] (read-out: LE_1b (EC50)) is 0.28 nM; in assay [1] (read-out: LE_1b (EC50, range)) it was under 5.46 nM; in assay [2] (read-out: LE_1a (EC50)), 1.29 nM; in assay [2] (read-out: LE_1a (EC50, range)), under 5.46 nM.
Turning to `CC[C@@H]1C[C@H](C)CC/C=C\[C@@H]2C[C@@]2(C(=O)NS(=O)(=O)C2(C)CC2)NC(=O)[C@@H]2C[C@@H](Oc3nc(OC)cc4ccccc34)CN2C(=O)[C@H]1NC(=O)OC(C)(C)C(F)(F)F` [Compound 6007, 1,1,1-trifluoro-2-methylpropan-2-yl((2R,6S,7R,9R,13aS,14aR,16aS,Z)-7-ethyl-2-((3-methoxyisoquinolin-1-yl)oxy)-9-methyl-14a-(((1-methylcyclopropyl)sulfonyl)carbamoyl)-5,16-dioxo-1,2,3,5,6,7,8,9,10,11,13a,14,14a,15,16,16a-hexadecahydrocyclopropa[e]pyrrolo[1,2-a][1,4]diazacyclopentadecin-6-yl)carbamate], the EC50 in assay [1] (read-out: LE_1b (EC50, range)) was under 5.46 nM; in assay [2] (read-out: LE_1a (EC50, range)), under 5.46 nM.
Take `COc1cc2ccccc2c(O[C@@H]2C[C@H]3C(=O)N[C@]4(C(=O)NS(=O)(=O)C5(C)CC5)C[C@H]4/C=C\CC[C@H](C)C[C@@H](C)[C@H](NC(=O)OC(C)(C)C)C(=O)N3C2)n1` [Compound 6008, tert-butyl ((2R,6S,7R,9S,13aS,14aR,16aS,Z)-2-((3-methoxyisoquinolin-1-yl)oxy)-7,9-dimethyl-14a-(((1-methylcyclopropyl)sulfonyl)carbamoyl)-5,16-dioxo-1,2,3,5,6,7,8,9,10,11,13a,14,14a,15,16,16a-hexadecahydrocyclopropa[e]pyrrolo[1,2-a][1,4]diazacyclopentadecin-6-yl)carbamate]: the EC50 in assay [1] (read-out: LE_1b (EC50, range)) was under 5.46 nM; in assay [2] (read-out: LE_1a (EC50, range)) it was under 5.46 nM.
For `COc1cc2ccccc2c(O[C@@H]2C[C@H]3C(=O)N[C@]4(C(=O)NS(=O)(=O)C5(C)CC5)C[C@H]4/C=C\CC[C@@H](C)C[C@@H](C)[C@H](NC(=O)OC(C)(C)C)C(=O)N3C2)n1` [Compound 6009, tert-butyl ((2R,6S,7R,9R,13aS,14aR,16aS,Z)-2-((3-methoxyisoquinolin-1-yl)oxy)-7,9-dimethyl-14a-(((1-methylcyclopropyl)sulfonyl)carbamoyl)-5,16-dioxo-1,2,3,5,6,7,8,9,10,11,13a,14,14a,15,16,16a-hexadecahydrocyclopropa[e]pyrrolo[1,2-a][1,4]diazacyclopentadecin-6-yl)carbamate], the EC50 is 0.3 nM in assay [1] (read-out: LE_1b (EC50)); under 5.46 nM in assay [1] (read-out: LE_1b (EC50, range)); 1.12 nM in assay [2] (read-out: LE_1a (EC50)); under 5.46 nM in assay [2] (read-out: LE_1a (EC50, range)).
For the compound `COc1cc2ccccc2c(O[C@@H]2C[C@H]3C(=O)N[C@]4(C(=O)NS(=O)(=O)C5CC5)C[C@H]4/C=C\CC[C@@H](C)C[C@@H](C)[C@H](NC(=O)OC(C)(C)C)C(=O)N3C2)n1` [Compound 6011, tert-butyl ((2R,6S,7R,9R,13aS,14aR,16aS,Z)-14a-((cyclopropylsulfonyl)carbamoyl)-2-((3-methoxyisoquinolin-1-yl)oxy)-7,9-dimethyl-5,16-dioxo-1,2,3,5,6,7,8,9,10,11,13a,14,14a,15,16,16a-hexadecahydrocyclopropa[e]pyrrolo[1,2-a][1,4]diazacyclopentadecin-6-yl)carbamate], the EC50 is under 5.46 nM in assay [1] (read-out: LE_1b (EC50, range)) and under 5.46 nM in assay [2] (read-out: LE_1a (EC50, range)).
For `COc1cc2ccccc2c(O[C@@H]2C[C@H]3C(=O)N[C@]4(C(=O)NS(=O)(=O)C5(C)CC5)C[C@H]4/C=C\CC[C@@H](C)C[C@@H](C)[C@H](NC(=O)OC(C)(C)C(F)(F)F)C(=O)N3C2)n1` [Compound 6015, 1,1,1-trifluoro-2-methylpropan-2-yl((2R,6S,7R,9R,13aS,14aR,16aS,Z)-2-((3-methoxyisoquinolin-1-yl)oxy)-7,9-dimethyl-14a-(((1-methylcyclopropyl)sulfonyl)carbamoyl)-5,16-dioxo-1,2,3,5,6,7,8,9,10,11,13a,14,14a,15,16,16a-hexadecahydrocyclopropa[e]pyrrolo[1,2-a][1,4]diazacyclopentadecin-6-yl)carbamate], the EC50 in assay [1] (read-out: LE_1b (EC50)) is 0.24 nM; in assay [1] (read-out: LE_1b (EC50, range)) it was under 5.46 nM; in assay [2] (read-out: LE_1a (EC50)), 1.19 nM; in assay [2] (read-out: LE_1a (EC50, range)), under 5.46 nM.
For `COc1cc2ccccc2c(O[C@@H]2C[C@H]3C(=O)N[C@]4(C(=O)NS(=O)(=O)C5(CF)CC5)C[C@H]4/C=C\CC[C@@H](C)C[C@@H](C)[C@H](NC(=O)OC(C)(C)C(F)(F)F)C(=O)N3C2)n1` [Compound 6016], the EC50 was under 5.46 nM in assay [1] (GETYPE1B, read-out: LE_1b (EC50, range)) and under 5.46 nM in assay [2] (GETYPE1A, read-out: LE_1a (EC50, range)).
In the case of `COc1cc2ccccc2c(O[C@@H]2C[C@H]3C(=O)N[C@]4(C(=O)NS(=O)(=O)C5CC5)C[C@H]4/C=C\CC[C@H](C)C[C@@H](C)[C@H](NC(=O)OC(C)(C)C(F)(F)F)C(=O)N3C2)n1` [Compound 6017, 1,1,1-trifluoro-2-methylpropan-2-yl((2R,6S,7R,9S,13aS,14aR,16aS,Z)-14a-((cyclopropylsulfonyl)carbamoyl)-2-((3-methoxyisoquinolin-1-yl)oxy)-7,9-dimethyl-5,16-dioxo-1,2,3,5,6,7,8,9,10,11,13a,14,14a,15,16,16a-hexadecahydrocyclopropa[e]pyrrolo[1,2-a][1,4]diazacyclopentadecin-6-yl)carbamate], the EC50 is under 5.46 nM in assay [1] (read-out: LE_1b (EC50, range)) and under 5.46 nM in assay [2] (read-out: LE_1a (EC50, range)).
Regarding `COc1cc2ccccc2c(O[C@@H]2C[C@H]3C(=O)N[C@]4(C(=O)NS(=O)(=O)C5CC5)C[C@H]4/C=C\CC[C@@H](C)C[C@@H](C)[C@H](NC(=O)OC(C)(C)C(F)(F)F)C(=O)N3C2)n1` [Compound 6018, 1,1,1-trifluoro-2-methylpropan-2-yl((2R,6S,7R,9R,13aS,14aR,16aS,Z)-14a-((cyclopropylsulfonyl)carbamoyl)-2-((3-methoxyisoquinolin-1-yl)oxy)-7,9-dimethyl-5,16-dioxo-1,2,3,5,6,7,8,9,10,11,13a,14,14a,15,16,16a-hexadecahydrocyclopropa[e]pyrrolo[1,2-a][1,4]diazacyclopentadecin-6-yl)carbamate], the EC50 in assay [1] (read-out: LE_1b (EC50, range)) was under 5.46 nM; in assay [2] (read-out: LE_1a (EC50, range)), under 5.46 nM.
`C[C@@H]1CC/C=C\[C@@H]2C[C@@]2(C(=O)NS(=O)(=O)C2(C)CC2)NC(=O)[C@@H]2C[C@@H](Oc3nc4c(c5ccccc35)OCCC4)CN2C(=O)[C@@H](NC(=O)OC(C)(C)C)[C@H](C)C1` [Compound 6020, tert-butyl ((2R,6S,7R,9R,13aS,14aR,16aS,Z)-2-((3,4-dihydro-2H-pyrano[3,2-c]isoquinolin-6-yl)oxy)-7,9-dimethyl-14a-(((1-methylcyclopropyl)sulfonyl)carbamoyl)-5,16-dioxo-1,2,3,5,6,7,8,9,10,11,13a,14,14a,15,16,16a-hexadecahydrocyclopropa[e]pyrrolo[1,2-a][1,4]diazacyclopentadecin-6-yl)carbamate]: the EC50 in assay [1] (read-out: LE_1b (EC50, range)) is under 5.46 nM; in assay [2] (read-out: LE_1a (EC50, range)) it was under 5.46 nM.

Values taken from patent US9499550B2 (BRISTOL-MYERS SQUIBB COMPANY, priority 2012, dated 2016).
